Results on 55 compounds are retold here after patent US6413959B1, “Method of treating depression with arylglycinamide derivatives” (Boehringer Ingelheim KG, priority 1995, dated 2002).

Structures can show the parent of a compound that is named as a salt.

In series [1] the target is T1, NK1-receptor (substance P-receptor) (Homo sapiens, UniProt P25103).
T1 construct: expressed in transfected cells; host or cells: IM-9 human lymphoblastoma cells
The series is described as follows: NK1-receptor affinity, displacement of 125I-labelled substance P on IM-9 cells. The class given is binding. To be noted: human lymphoblastoma cells (IM-9) with cloned NK1-receptors. A general note: Displacement assays read how much labelled ligand stays bound in the presence of the test substance.

T1 sequence (P25103 whole entry): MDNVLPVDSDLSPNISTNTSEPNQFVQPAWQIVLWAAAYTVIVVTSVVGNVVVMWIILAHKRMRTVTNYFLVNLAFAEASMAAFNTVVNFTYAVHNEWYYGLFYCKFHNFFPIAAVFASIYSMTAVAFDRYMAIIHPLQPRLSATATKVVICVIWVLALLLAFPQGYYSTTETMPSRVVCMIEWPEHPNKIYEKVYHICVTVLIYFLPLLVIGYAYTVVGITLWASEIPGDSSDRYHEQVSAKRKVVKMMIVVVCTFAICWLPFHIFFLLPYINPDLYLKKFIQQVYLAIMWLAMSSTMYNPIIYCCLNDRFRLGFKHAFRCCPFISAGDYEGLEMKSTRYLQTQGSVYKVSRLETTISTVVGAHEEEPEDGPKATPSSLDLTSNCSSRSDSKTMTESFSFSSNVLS

Take `COc1ccccc1C(C(=O)NCCc1cc(C(F)(F)F)cc(C(F)(F)F)c1)N1CCN(C2CCCCC2)CC1` (stereo not drawn) [Example 64]: the melting point is 85 to 92 °C.

`CN(CCc1cc(C(F)(F)F)cc(C(F)(F)F)c1)C(=O)C(c1ccccc1)N1CCC(N2CCCC2)CC1` (stereo not drawn) [Example 45] yielded a Ki in series [1] of 1.6 nM.

`CN(CCc1cc(C(F)(F)F)cc(C(F)(F)F)c1)C(=O)C(c1ccc2c(c1)OCO2)N1CCN(C2CCCCC2)CC1` (stereo not drawn) [Example 71] came in with a melting point of 87 to 97 °C. The Ki in series [1] worked out at 2.1 nM.

Turning to `CC(=O)N1CCN(C2CCN(C(C(=O)NCc3cc(C(F)(F)F)cc(C(F)(F)F)c3)c3ccccc3)CC2)C1=O` (stereo not drawn) [Example 13], the melting point was in the range of 87 to 95 °C.

As for `CCC(=O)NC1CCN(C(C(=O)NCc2cc(C(F)(F)F)cc(C(F)(F)F)c2)c2ccccc2)CC1` (racemic) [Example 2, (R,S)-4-propionylamino-1-[2-phenylacetic acid-N(3,5-bis-trifluoromethyl-benzyl)-amide]-piperidine], the melting point was 189 to 191 °C.

For `Cl.O=C(NCc1cc(C(F)(F)F)cc(C(F)(F)F)c1)C(c1ccccc1)N1CCC(N2C(=O)CCC2=O)CC1` (stereo not drawn), the melting point lay in the range of 110 to 115 °C.

`CN(CCc1cc(C(F)(F)F)cc(C(F)(F)F)c1)C(=O)C(c1ccccc1)N1CCN(C2CCCCCC2)CC1` (stereo not drawn) [Example 53] gave a melting point of 110 to 120 °C. Moreover, the affinity in series [1] corresponds to a Ki of 2.3 nM.

As for `O=C(NCc1cc(C(F)(F)F)cc(C(F)(F)F)c1)C(c1ccccc1)N1CCC(n2c(=O)[nH]c3cccnc32)CC1` (stereo not drawn) [Example 15], the melting point lay in the range of 208 to 210 °C.

Consider `O=C(NCc1cc(C(F)(F)F)cc(C(F)(F)F)c1)C(c1cccc(Cl)c1)N1CCN(C2CCCCC2)CC1` (stereo not drawn) [Example 30], for which the melting point was over 240 °C.

Turning to `O=C(NCc1cc(C(F)(F)F)cc(C(F)(F)F)c1)C(c1ccc(F)cc1)N1CCN(C2CCCCC2)CC1` (stereo not drawn) [Example 31], the melting point was over 240 °C.

Turning to `O=C(NCCc1cc(C(F)(F)F)cc(C(F)(F)F)c1)C(c1ccccc1Cl)N1CCN(C2CCCCC2)CC1` (stereo not drawn) [Example 63], the melting point fell in the range of 215 to 224 °C.

`O=C(NCc1cc(C(F)(F)F)cc(C(F)(F)F)c1)C(c1ccccc1Cl)N1CCN(C2CCCCC2)CC1` (stereo not drawn) [Example 29]: the melting point lay within 120 to 122 °C.

For `CN(CCc1cc(C(F)(F)F)cc(C(F)(F)F)c1)C(=O)C(c1ccccc1)N1CCC(N2CCCCC2)CC1` (stereo not drawn) [Example 33], in series [1], the Ki is 1.3 nM.

`CN(CCc1cc(C(F)(F)F)cc(C(F)(F)F)c1)C(=O)C(c1ccccc1)N1CCC(c2ccccc2)CC1.Cl` (stereo not drawn): the melting point is 106 to 110 °C.

In the case of `O=C(NCCc1cc(C(F)(F)F)cc(C(F)(F)F)c1)C(c1ccccc1)N1CCN(C2CCCCC2)CC1` (stereo not drawn) [Example 3], the melting point was 235 to 238 °C. Also, the Ki in series [1] is 1.4 nM.

Take `O=C(NCCc1cc(C(F)(F)F)cc(C(F)(F)F)c1)C(c1ccccc1)N1CCC(N2CCCCC2)CC1` (stereo not drawn) [Example 25]: the melting point is 192 to 199 °C.

For `CN(CCc1cc(C(F)(F)F)cc(C(F)(F)F)c1)C(=O)C(c1ccccc1)N1CCN(C2CCC2)CC1` (stereo not drawn) [Example 68], the melting point was 236 to 238 °C (dec.). In addition, the affinity in series [1], expressed as Ki, was 1.5 nM.

Consider `COc1ccc(C(C(=O)N(C)CCc2cc(C(F)(F)F)cc(C(F)(F)F)c2)N2CCN(C3CCCCC3)CC2)cc1OC` (stereo not drawn) [Example 70], for which the melting point was 123 to 133 °C (dec.). This compound also yielded a Ki in series [1] of 2.8 nM.

In the case of `O=C(NCCCc1ccc(C(F)(F)F)cc1C(F)(F)F)C(c1ccccc1)N1CCN(C2CCCCC2)CC1` (stereo not drawn) [Example 17], the melting point lay within 118 to 123 °C.

The compound `CN(CCc1cc(C(F)(F)F)cc(C(F)(F)F)c1)C(=O)C(c1ccccc1)N1CCN(CCc2ccccc2)CC1` (stereo not drawn) [Example 65] had a melting point of 148 to 156 °C. Besides, the affinity in series [1], expressed as Ki, was 9.2 nM.

For `CN(CCc1cc(C(F)(F)F)cc(C(F)(F)F)c1)C(=O)C(c1ccccc1)N1CCC2(CC1)C(=O)NCN2c1ccccc1` (stereo not drawn), the melting point is 265 to 268 °C (dec.).

Turning to `O=C(NCc1cc(C(F)(F)F)cc(C(F)(F)F)c1)C(c1ccccc1)N1CCN(CCC2CCCCC2)CC1` (stereo not drawn) [Example 6], the melting point lay in the range of 97 to 99 °C.

As to `O=C(Nc1ccccc1)C1CCN(C(C(=O)NCc2cc(C(F)(F)F)cc(C(F)(F)F)c2)c2ccccc2)CC1` (stereo not drawn) [Example 19], the melting point was > 240 °C (dec.).

Turning to `CN(CCc1cc(C(F)(F)F)cc(C(F)(F)F)c1)C(=O)C(c1ccc(Cl)c(Cl)c1)N1CCC(N2CCCCC2)CC1` (stereo not drawn) [Example 59], the melting point is 244 to 246 °C (dec.). The Ki in series [1] stood at 4.2 nM.

Compound `CN(CCc1cc(C(F)(F)F)cc(C(F)(F)F)c1)C(=O)C(c1ccccc1)N1CCC(n2c(=O)[nH]c3ccccc32)CC1` (stereo not drawn) showed a melting point of 177 to 187 °C.

Turning to `O=C(NCc1cc(C(F)(F)F)cc(C(F)(F)F)c1)C(c1cc(C(F)(F)F)cc(C(F)(F)F)c1)N1CCN(C2CCCCC2)CC1` (stereo not drawn) [Example 24], the melting point is 210 °C.

`CN(CCc1cc(C(F)(F)F)cc(C(F)(F)F)c1)C(=O)C(c1ccccc1)N1CCN(c2ccccc2)CC1` (stereo not drawn) [Example 60] displayed a melting point of 113 to 123 °C.

Take `O=C(NCc1cc(C(F)(F)F)cc(C(F)(F)F)c1)C(c1ccccc1)N1CCN(CCC2CC2)CC1` (stereo not drawn) [Example 18]: the melting point is 134 to 136 °C.

For the compound `CN(CCc1ccc(C(F)(F)F)cc1C(F)(F)F)C(=O)C(c1ccccc1)N1CCC(N2CCCCC2)CC1` (stereo not drawn) [Example 74], the inhibitory constant (Ki) in series [1] amounted to 11.8 nM.

For `CN(CCc1cc(C(F)(F)F)cc(C(F)(F)F)c1)C(=O)C(c1ccc(Cl)c(Cl)c1)N1CCN(C2CCCCC2)CC1` (stereo not drawn) [Example 58], the melting point was 212 to 216 °C (dec.). The compound also returned an inhibition constant (Ki) in series [1] of 6.4 nM.

Compound `O=C(O)CN(Cc1cc(C(F)(F)F)cc(C(F)(F)F)c1)C(=O)C(c1ccccc1)N1CCN(C2CCCCC2)CC1` (stereo not drawn) [Example 22] came in with a melting point of 70 to 73 °C.

In turn, `O=C(NCc1cc(C(F)(F)F)cc(C(F)(F)F)c1)C(c1ccc(Cl)cc1)N1CCN(C2CCCCC2)CC1` (stereo not drawn) [Example 26] gave a melting point of 112 to 118 °C.

In the case of `CCN(CCc1cc(C(F)(F)F)cc(C(F)(F)F)c1)C(=O)C(c1ccccc1)N1CCC(N2CCCCC2)CC1` (stereo not drawn) [Example 73], the affinity in series [1], expressed as Ki, was 1.7 nM.

In the case of `O=C(NCc1cc(C(F)(F)F)cc(C(F)(F)F)c1)C(c1ccccc1)N1CCC(Nc2ccccn2)CC1` (stereo not drawn) [Example 14], the melting point was 164 to 166 °C.

Turning to `O=C(NCc1cc(C(F)(F)F)cc(C(F)(F)F)c1)C(c1ccccc1)N1CCC(N2CCCCC2)CC1` (stereo not drawn) [Example 7], the melting point was > 240 °C (dec.).

As for `O=C(NCc1cc(C(F)(F)F)cc(C(F)(F)F)c1)C(c1ccccc1Br)N1CCN(C2CCCCC2)CC1` (stereo not drawn) [Example 28], the melting point lay within 118 to 120 °C.

The compound `O=C(NCc1cc(C(F)(F)F)cc(C(F)(F)F)c1)C(c1ccccc1)N1CCC(N(C(=O)c2ccccc2)c2ccccc2)CC1` (stereo not drawn) yielded a melting point of 102 to 105 °C.

`O=C(NCc1cc(C(F)(F)F)cc(C(F)(F)F)c1)C(c1ccccc1)N1CCN(C2CCCCC2)CC1` (racemic) [Example 1, (R,S)-1-cyclohexyl-piperazinyl-4-[2-phenylacetic acid-N-(3,5-bis-trifluoromethylbenzyl)amide]] had a melting point of 124 to 129 °C.

Consider `Cl.O=C(NCc1cc(C(F)(F)F)cc(C(F)(F)F)c1)C(c1ccccc1)N1CCC(N(C(=O)c2ccccc2)c2ccccn2)CC1` (stereo not drawn), for which the melting point was 145 to 151 °C.

`CN(CCc1cc(C(F)(F)F)cc(C(F)(F)F)c1)C(=O)C(c1ccccc1)N1CCC(N2CCOCC2)CC1` (stereo not drawn) [Example 46]: the Ki in series [1] amounted to 1.4 nM.

With `O=C(Nc1ccccc1)NC1CCN(C(C(=O)NCc2cc(C(F)(F)F)cc(C(F)(F)F)c2)c2ccccc2)CC1` (stereo not drawn) [Example 10], the melting point fell in the range of 218 to 223 °C.

On to `O=C(NCc1cc(C(F)(F)F)cc(C(F)(F)F)c1)C(c1cccc(Br)c1)N1CCN(C2CCCCC2)CC1` (stereo not drawn) [Example 27], for which the melting point fell in the range of 124 to 127 °C.

In turn, `O=C(NCCc1cc(C(F)(F)F)cc(C(F)(F)F)c1)C(c1cccc2ccccc12)N1CCN(C2CCCCC2)CC1` (stereo not drawn) [Example 38] registered a melting point of 155 to 172 °C.

The compound `Cc1nc2ccccc2n1C1CCN(C(C(=O)NCc2cc(C(F)(F)F)cc(C(F)(F)F)c2)c2ccccc2)CC1` (stereo not drawn) yielded a melting point of 107 to 111 °C.

On to `O=C(NCc1cc(C(F)(F)F)cc(C(F)(F)F)c1)C(c1ccc(Cl)c(Cl)c1)N1CCN(C2CCCCC2)CC1` (stereo not drawn) [Example 23], for which the melting point was 248 to 254 °C.

As to `COc1ccccc1C(C(=O)NCc1cc(C(F)(F)F)cc(C(F)(F)F)c1)N1CCN(C2CCCCC2)CC1` (stereo not drawn) [Example 42], the melting point lay in the range of 142 to 150 °C.

With `CC(C)N(CCc1cc(C(F)(F)F)cc(C(F)(F)F)c1)C(=O)C(c1ccccc1)N1CCC(N2CCCCC2)CC1` (stereo not drawn) [Example 72], in series [1], the affinity, expressed as Ki, was 6.8 nM.

As for `O=C(NCc1cc(C(F)(F)F)cc(C(F)(F)F)c1)C(c1ccc(Br)cc1)N1CCN(C2CCCCC2)CC1` (stereo not drawn) [Example 21], the melting point fell in the range of 228 to 232 °C.

For `O=C(NC1CCN(C(C(=O)NCc2cc(C(F)(F)F)cc(C(F)(F)F)c2)c2ccccc2)CC1)c1ccccc1` (stereo not drawn) [Example 20], the melting point lay in the range of 180 to 185 °C.

The compound `CN(CCc1cc(C(F)(F)F)cc(C(F)(F)F)c1)C(=O)C(c1ccccc1)N1CCC(C(N)=O)(c2ccccc2)CC1.Cl` (stereo not drawn) had a melting point of 127 to 137 °C.

For the compound `O=C(NCc1cc(C(F)(F)F)cc(C(F)(F)F)c1)C(c1ccccc1)N1CCC2(CC1)C(=O)NCN2c1ccccc1` (stereo not drawn), the melting point lay in the range of 205 to 210 °C.

In the case of `NC(=O)C1(N2CCCCC2)CCN(C(C(=O)NCc2cc(C(F)(F)F)cc(C(F)(F)F)c2)c2ccccc2)CC1` (stereo not drawn) [Example 11], the melting point was > 220 °C (dec.).

The compound `O=C(C(c1ccccc1)N1CCC(N2CCCCC2)CC1)N(CCc1cc(C(F)(F)F)cc(C(F)(F)F)c1)Cc1ccccc1` (stereo not drawn) [Example 76] had a Ki in series [1] of 7 nM.

`CN(CCc1cc(C(F)(F)F)cc(C(F)(F)F)c1)C(=O)C(c1ccccc1)N1CCC(N2CCCCC2)CC1` (stereo not drawn) (as salt: hydrochloride) [Example 33] gave a melting point of over 240 °C.

As for `O=C(NCCc1cc(C(F)(F)F)cc(C(F)(F)F)c1)C(c1ccccc1Br)N1CCN(C2CCCCC2)CC1` (stereo not drawn) [Example 62], the melting point fell in the range of 210 to 218 °C.

In general, melting point refers to the temperature, or range, at which the solid turns liquid. As a reminder, the Ki is the equilibrium dissociation constant of an inhibitor or competing ligand from its target. Low values mean tighter binding, high ones weaker binding.
